Source: patent publication US20260053760A1, “Compositions Suitable for Use on Skin Afflicted with Eczema” (Kenvue Brands LLC, priority 2022, published 2026)

Test system: Staphylococcus epidermidis (ATCC 12228)
Assay: In vitro bacteria competition assay (co-culture)
Assay type: cell-based
Conditions: 1:1 co-culture with S. aureus in Nutrient Broth, 24 hours aerobic, colony counts; percentages w/v %
Description: In vitro bacteria competition assay evaluated Staphylococcus epidermidis (ATCC 12228, skin health associated strain) and Staphylococcus aureus (ATCC 6538, human lesion isolate) co-culture in the presence of test materials. Percentages are w/v % in liquid medium (Nutrient Broth, Culture Media and Supplies Inc.) To mimic the microenvironment of the skin surface, an aerobic, co-culture system of S. epidermidis and S. aureus was established. 50 μL S. epidermidis and 50 μL S. aureus (a 1:1 ratio) were inoculated (50 μL at approximately 5.0×10^6 CFU/mL each) in Nutrient Broth and in the presence of the test materials as specified in Table 14 below. [table] Test groups were incubated aerobically for 24 hours (n=3 per test group) After 24 hours, each test group was plated onto agar and incubated aerobically for 24 hours […]. After incubation, colonies were counted, and CFU/mL calculated. S. epidermidis and S. aureus colonies were differentiated on agar (Tryptic Soy Agar+5% sheep's blood, BD Diagnostics) based on representative morphology.

`CC(O)C(=O)O` (stereo not shown) [Lactic Acid (1.1%), Lactic acid] was tested, and the “Bacteria Competition Assay: S. epidermidis growth versus untreated” value was “inhibited”.
